“And” between values parts separate entries of the source, which are not always exact repeats. Identical values can stand only once.
How the values were obtained:
small intestine mucosa = test: Ussing chamber isotope flux studies, unidirectional and net flux of Na^+ and Cl^−; type: in vitro ADME, mice; set-up: key to Na Flux Jms / Na Flux Jsm / Na Flux Jnet: fluxes in μmol·h^−1·cm^−2
Protocol: (§1) Following exsanguinations, jejunal segment was obtained by excluding the distal 12 cm of small intestine adjacent to the caecum. This segment was washed and flushed in ice-cold Ringer's solution before the mucosa was stripped from the underlying muscular layers (Zhang, Ameen et al. 2007). The mucosa was mounted between the 2 halves of an Ussing-type Lucite chamber with an area of 0.30 cm^2 (P2304, Physiologic instruments, San Diego, Calif. 92128 USA), and electrical parameters were recorded using a voltage/current clamp device (VCC MC-8, Physiologic instruments, San Diego, Calif. 92128 USA) (Vidyasagar et al. 2005; Vidyasagar et al. 2004; Zhang et al. 2007; Vidyasagar and Ramakrishna 2002).
Irradiation decreases Jms in a dose-dependent manner, and results in decreased net Na^+ absorption (JNetNa). Jsm far exceeds Jms at doses 7 and 9 Gy, causing net secretion. In addition, mice stool samples became loose or poorly formed at high dose irradiation, further evidencing decreased absorption and increased secretion of electrolytes. […] Decrease in Cl^− absorption was due to decrease in JmsCl^−.
In this Example, isotope (^22Na and ^36Cl) substitution studies are performed to determine the basal Na^+ and Cl^− movement. Briefly, ^22Na and ^36Cl are added either to the mucosal or to the serosal side. 0.5 ml samples are collected from the cold side at the end of every 30 minutes. Unidirectional fluxes are calculated using standard formula, and expressed as μmol·h^−1·cm^−2. Net flux (JNet) is calculated as the difference between Jms and Jsm fluxes across tissue pairs. Experiments are performed under short-circuit conditions.

[1] = system: jejunum (HCO3^− secretion); test: pH stat measurement of HCO3^− secretion in stripped jejunal sheets; type: cell-based, mice
Protocol: A Bi-burette TIM 856 (Radiometer Analytical SAS, Villeurbanne, France) was used to measure HCO3^− secretion in stripped jejunal sheets (Vidyasagar et al. 2005; Vidyasagar et al. 2004; Zhang et al. 2007). Automated pumps maintained a constant pH for luminal solution through the addition of 0.01 μl of 0.025 M sulfuric acid (H2SO4). Standard-to-stat pH calibration was established by adding a known quantity of H2SO4 to a weak buffering solution, which contains an increasing concentration of HCO3^− to produce a linear titration curve.
Jejunal tissues were exposed to a buffered solution on the bath side (serosal side), while the luminal side was exposed to an HCO3^− free, low-buffered solution (0.1-mM HEPES (4-(2-hydroxyethyl)-1-piperazineethanesulfonic acid) buffer, pH 7.4). The HCO3^− secretion was equivalent to the amount of acid added to the luminal solution to maintain the pH at 7.4 (or the stat pH). All experiments were performed under voltage-clamp conditions. HCO3^−-free solution was gassed with 100% O2 and HCO3^−-containing solution was gassed with 95% O2 and 5% CO2. The HCO3^− secretion was expressed as μeq h^−1·cm^−2 (Vidyasagar et al. 2005; Vidyasagar et al. 2004; Zhang et al. 2007).
After the tissue was mounted, HCO3^− secretions were initially present in the absence of bath HCO3^−, but rapidly fell towards 0 within 20-30 minutes. If bath HCO3^− was not present during the titration, the HCO3^− secretion remained close to 0. […] When inhibitors were added to the mucosal solution, the pH was adjusted and allowed to equilibrate for 30 minutes, until a steady rate of HCO3^− secretion was observed. When the inhibitor was added to the bath side, the tissue was also equilibrated for 30 minutes to achieve a steady rate of HCO3^− secretion (see Table 3).
All experiments were performed during the initial 1-hour steady-state period. 1 tissue from each animal was used for each experiment; only 1 experimental condition was studied with each tissue sample. All experiments were repeated for at least 4 times.

[2] = system: jejunal mucosa (net anion secretion); test: Ussing chamber transepithelial short circuit current (Isc) with transport blockers/forskolin; type: cell-based, mice
Excerpt: To study active HCO3^− secretion, 8-week-old, non-irradiated and irradiated, male BALB/c mice were obtained from the National Cancer Institute. Mice were randomly divided into groups, and abdomens were irradiated according to the gastrointestinal acute radiation syndrome (GI ARS) model with a Shepherd Mark-I, using a ^137Cs source delivering γ-irradiation at 1.84 Gy/min. Radiation was given as a single fraction. The GI ARS model will achieve maximum radiation damage to intestinal tissues, and mimics intestinal injury during radiation therapy of pelvic or abdominal tumors.
Changes in short circuit current (Isc), both as a function of time following radiation and with increasing doses of radiation, were examined to determine the earliest time and the minimum radiation dose required to produce significant changes in Isc. These studies were approved by the University of Rochester Animal Care and Use Committee.
as §1
To determine the contribution of NKCC1 to basal Isc, 100 μM bumetanide (Sigma-Aldrich Co., USA) was added to the bath solution.
To determine whether the bumetanide-insensitive portion of Isc occurs via an apical membrane anion channel, a non-specific anion channel blocker, 5-nitro-2-(3-phenylpropylamino)-benzoic acid (Sigma-Aldrich Co., USA) (10 μM NPPB), and a specific cystic fibrosis transmembrane conductance regulator (CFTR) blocker (100 μM glibenclamide, Sigma-Aldrich Co., USA) were applied.

[3] = system: mice with injury to small intestine mucosa; test: Oral administration of candidate nutrients in radiation, chemotherapy and Crohn's disease models; conditions: for survival: oral feeding of an irradiated subject; for effect of oral administration on small intestine healing, paracellular conductance, electrolyte absorption, survival: radiation, chemotherapy and Crohn's disease models, each amino acid
Protocol: In a Crohn's disease model, mice are injected with anti-CD3 mAb (acute inflammatory model to mimic conditions of Crohn's disease).
The alterations of absorptive capacity of nutrients are determined using disease models with injury to small intestine mucosa, i.e., the radiation model, chemotherapy model, and the Crohn's disease model. Specifically, a candidate nutrient is orally administered to control mice and mice that received irradiation, chemotherapy, and anti-CD3 mAb, respectively. In addition, compositions containing various combinations of the candidate nutrients are orally administered.
To determine the absorptive capacity of each nutrient, bioelectric measurements are performed using an Ussing chamber. The measurements include: a) the sodium coupled-amino acid current (ISC) and changes in conductance, b) changes in saturation kinetics of each nutrient and changes in the ISC following the administration of each nutrient; and c) the electrolyte absorption studies using isotope flux studies in the presence and absence of the specific candidate nutrient.

Cl [Cl^−]
Cl Flux Jms (small intestine mucosa; IR 0 Gy): 17.3 ± 1.1
Cl Flux Jnet (small intestine mucosa; IR 0 Gy): 10.2 ± 0.8
Cl Flux Jsm (small intestine mucosa; IR 0 Gy): 7.1 ± 0.6
Cl Flux Jms (small intestine mucosa; IR 1 Gy): 12.8 ± 0.9
Cl Flux Jnet (small intestine mucosa; IR 1 Gy): 5.2 ± 0.9
Cl Flux Jsm (small intestine mucosa; IR 1 Gy): 7.6 ± 1.3
Cl Flux Jms (small intestine mucosa; IR 3 Gy): 16.8 ± 0.7
Cl Flux Jnet (small intestine mucosa; IR 3 Gy): 7.5 ± 0.8
Cl Flux Jsm (small intestine mucosa; IR 3 Gy): 9.3 ± 0.8
Cl Flux Jms (small intestine mucosa; IR 5 Gy): 14.2 ± 1.2
Cl Flux Jnet (small intestine mucosa; IR 5 Gy): 3.9 ± 0.7
Cl Flux Jsm (small intestine mucosa; IR 5 Gy): 10.3 ± 0.9
Cl Flux Jms (small intestine mucosa; IR 7 Gy): 7.1 ± 0.5
Cl Flux Jnet (small intestine mucosa; IR 7 Gy): 0.3 ± 0.2
Cl Flux Jsm (small intestine mucosa; IR 7 Gy): 6.9 ± 0.3
Cl Flux Jms (small intestine mucosa; IR 9 Gy): −9.2 ± 0.8
Cl Flux Jnet (small intestine mucosa; IR 9 Gy): −9.3 ± 0.9
Cl Flux Jsm (small intestine mucosa; IR 9 Gy): 0.1 ± 0.1

CS(=O)(=O)c1cc(C(=O)NC(=N)N)ccc1N1CCCCC1.Cl [HOE694, 3-methylsulphonyl-4-piperidinobenzoyl, guanidine hydrochloride]
cAMP-stimulated HCO3^− secretion after HOE694 ([1]; 1 mM HOE694 on bath side, 8.4±0.4 without): 7.2±0.9 μeq·h^−1·cm^−2

O=C(O)c1cc([N+](=O)[O-])ccc1NCCCc1ccccc1 [NPPB, 5-nitro-2-(3-phenylpropylamino)-benzoic acid]
forskolin-stimulated HCO3^− secretion after blocker ([1]; 0 Gy + forskolin, blocker on luminal side (100 μM glibenclamide; NPPB)): 0.2±0.01 μeq·h^−1·cm^−2
HCO3^− secretion ([1]; 3 Gy, blocker in lumen solution / mucosal addition (100 μM DIDS or glibenclamide; NPPB)): 0.2±0.01 μeq·h^−1·cm^−2
bumetanide-insensitive Isc after mucosal addition of blocker ([2]; 0-Gy mice, 10 μM NPPB, 100 μM glibenclamide): 0.1±0.01 μeq·h^−1·cm^−2

[Na+] [Na^+]
Na Flux Jms (small intestine mucosa; IR 0 Gy): 16.4 ± 0.9
Na Flux Jnet (small intestine mucosa; IR 0 Gy): 9.8 ± 0.8
Na Flux Jsm (small intestine mucosa; IR 0 Gy): 7.1 ± 0.8
Na Flux Jms (small intestine mucosa; IR 1 Gy): 15.6 ± 1
Na Flux Jnet (small intestine mucosa; IR 1 Gy): 8.6 ± 0.9
Na Flux Jsm (small intestine mucosa; IR 1 Gy): 7.1 ± 1.1
Na Flux Jms (small intestine mucosa; IR 3 Gy): 6.8 ± 0.7
Na Flux Jnet (small intestine mucosa; IR 3 Gy): 2.6 ± 0.5
Na Flux Jsm (small intestine mucosa; IR 3 Gy): 3.5 ± 0.3
Na Flux Jms (small intestine mucosa; IR 5 Gy): 5.2 ± 0.6
Na Flux Jnet (small intestine mucosa; IR 5 Gy): 0.4 ± 0.2
Na Flux Jsm (small intestine mucosa; IR 5 Gy): 4.8 ± 0.4
Na Flux Jms (small intestine mucosa; IR 7 Gy): 4.8 ± 0.4
Na Flux Jnet (small intestine mucosa; IR 7 Gy): −0.6 ± 0.3
Na Flux Jsm (small intestine mucosa; IR 7 Gy): 5.4 ± 0.4
Na Flux Jms (small intestine mucosa; IR 9 Gy): 4.3 ± 0.7
Na Flux Jnet (small intestine mucosa; IR 9 Gy): −0.4 ± 0.2
Na Flux Jsm (small intestine mucosa; IR 9 Gy): 4.7 ± 0.6

NC(=O)C[C@H](N)C(=O)O [asparagine]
survival [3]: prolongs survival
effect of oral administration on small intestine healing, paracellular conductance, electrolyte absorption, survival [3]: improve small intestine healing, reduces paracellular conductance (thereby improving small intestine mucosal barrier mechanism), increases absorption of electrolytes, and/or improves survival in animals

N[C@@H](CC(=O)O)C(=O)O [aspartic acid]
survival [3]: prolongs survival
effect of oral administration on small intestine healing, paracellular conductance, electrolyte absorption, survival [3]: improve small intestine healing, reduces paracellular conductance (thereby improving small intestine mucosal barrier mechanism), increases absorption of electrolytes, and/or improves survival in animals

C=C[C@@]1(C)CC(=O)[C@]2(O)[C@@]3(C)[C@@H](O)CCC(C)(C)[C@@H]3[C@H](O)[C@H](OC(C)=O)[C@@]2(C)O1 [forskolin]
HCO3^− secretion ([1]; 0 Gy + forskolin, Cl^− containing lumen solution): 8.4±0.4 μeq·h^−1·cm^−2
HCO3^− secretion ([1]; 0 Gy + forskolin, Cl^−-free lumen solution): 8.7±0.4 μeq·h^−1·cm^−2 and 8.7 ± 0.4^ μeq·h^−1·cm^−2
HCO3^− secretion ([1]; 3 Gy + forskolin, Cl^− containing lumen solution): 0.6 ± 0.2 μeq·h^−1·cm^−2
HCO3^− secretion ([1]; 3 Gy + forskolin, Cl^− containing lumen solution, listed as Forskolin): 0.6±0.2 μeq·h^−1·cm^−2
HCO3^− secretion ([1]; 3 Gy + forskolin, Cl^−-free lumen solution): 0.9 ± 0.2^ μeq·h^−1·cm^−2
forskolin-stimulated HCO3^− secretion ([1]; non-irradiated mice, bath Na^+ replaced with NMDG): 0.3±0.01 μeq·h^−1·cm^−2
forskolin-stimulated Isc ([2]; 0 Gy): 6.9±0.6 μeq·h^−1·cm^−2
forskolin-stimulated Isc in Cl^−-free solution ([2]; 0 Gy): 1.7±0.2 μeq·h^−1·cm^−2
forskolin-stimulated Isc in Cl^−-free solution ([2]; 3-Gy irradiated mice): 0.3±0.1 μeq·h^−1·cm^−2
forskolin-stimulated Isc ([2]; 3 Gy): 7.3±0.5 μeq·h^−1·cm^−2

NCC(=O)O [glycine]
survival [3]: prolongs survival
effect of oral administration on small intestine healing, paracellular conductance, electrolyte absorption, survival [3]: improve small intestine healing, reduces paracellular conductance (thereby improving small intestine mucosal barrier mechanism), increases absorption of electrolytes, and/or improves survival in animals

CC[C@H](C)[C@H](N)C(=O)O [isoleucine]
survival [3]: prolongs survival
effect of oral administration on small intestine healing, paracellular conductance, electrolyte absorption, survival [3]: improve small intestine healing, reduces paracellular conductance (thereby improving small intestine mucosal barrier mechanism), increases absorption of electrolytes, and/or improves survival in animals

N[C@@H](CO)C(=O)O [serine]
survival [3]: prolongs survival
effect of oral administration on small intestine healing, paracellular conductance, electrolyte absorption, survival [3]: improve small intestine healing, reduces paracellular conductance (thereby improving small intestine mucosal barrier mechanism), increases absorption of electrolytes, and/or improves survival in animals

C[C@@H](O)[C@H](N)C(=O)O [threonine]
survival [3]: prolongs survival
effect of oral administration on small intestine healing, paracellular conductance, electrolyte absorption, survival [3]: improve small intestine healing, reduces paracellular conductance (thereby improving small intestine mucosal barrier mechanism), increases absorption of electrolytes, and/or improves survival in animals

N[C@@H](Cc1c[nH]c2ccccc12)C(=O)O [tryptophan]
survival [3]: prolongs survival
effect of oral administration on small intestine healing, paracellular conductance, electrolyte absorption, survival [3]: improve small intestine healing, reduces paracellular conductance (thereby improving small intestine mucosal barrier mechanism), increases absorption of electrolytes, and/or improves survival in animals

N[C@@H](Cc1ccc(O)cc1)C(=O)O [tyrosine]
survival [3]: prolongs survival
effect of oral administration on small intestine healing, paracellular conductance, electrolyte absorption, survival [3]: improve small intestine healing, reduces paracellular conductance (thereby improving small intestine mucosal barrier mechanism), increases absorption of electrolytes, and/or improves survival in animals

CC(C)[C@H](N)C(=O)O [valine]
survival [3]: prolongs survival
effect of oral administration on small intestine healing, paracellular conductance, electrolyte absorption, survival [3]: improve small intestine healing, reduces paracellular conductance (thereby improving small intestine mucosal barrier mechanism), increases absorption of electrolytes, and/or improves survival in animals
